According to US9024018B2, “3-substituted-8-substituted-3H-imidazo[5,1-d][1,2,3,5]tetrazin-4-one compounds and their use” (Pharminox Limited, priority 2009, dated 2015):

Legend:
Type in all cases: cell-based
SNB19M = test: MTT assay for 7-day toxicity, SNB19M glioma cells (stably transfected with MGMT, MGMT+); conditions: 7 day MTT assay, glioma line SNB19M
Experimental: (§1) The cell culture techniques were carried out in a Class II microbiological safety cabinet which was swabbed with 70% IMS in distilled water before each use. Glioma cells were routinely cultured in Costar tissue culture flasks in RPMI 1640 liquid medium (containing 0.3 g/L L-glutamine and 2 g/L sodium bicarbonate) supplemented with 10% heat inactivated FBS (55-59° C.) for 1 hour to denature complement proteins which would otherwise evoke a cellular immune response resulting in cell lysis, 1% non-essential amino acids, 50 μg/mL gentamicin and 400 μg/mL G418 (vector selection reagent). Colorectal and melanoma cells were maintained in RPMI 1640 supplemented with 10% FBS. MRC-5 cells were cultured in EMEM+10% FBS, 1% pen/strep, 1% non-essential amino acids, 1% HEPES (1M) and 1% sodium bicarbonate.
(§2) Cells were grown at 37° C. in a humidified incubator in an atmosphere comprising 95% air/5% CO2. Cells were sub-cultured when growth exceeded approximately 80% confluence, normally twice weekly. The medium was aspirated from the flask and approximately 0.8 mL trypsin-EDTA 1× solution added. The cells were re-incubated at 37° C. until they had visibly detached from the flask. The cells were re-suspended in 5 mL medium and 0.5-1 mL was transferred to a new flask (25 cm^2) with 7 mL culture medium. The cells were further incubated at 37° C. To minimize phenotypic drift, cells were disposed of once they had been subcultured 30 times. New batches of cells were thawed rapidly in 37° C. water bath once taken from liquid nitrogen storage and re-suspended in 10 mL of culture medium in a 25 cm^2 flask. Cells were passaged twice to allow normal growth to resume prior to use in experiments.
(§3) Most test compounds, including temozolomide, were prepared as 100 mM stock solutions in DMSO and stored at −20° C. for not more than 6 months.
(§4) MTT Assay for 7-Day Toxicity Assay
(§5) This assay was first described in Mosmann, T., 1983, “Rapid colorimetric assay for cellular growth and survival: Application to proliferation and cytotoxicity assays”, Journal of Immunological Methods, Vol. 65, Nos. 1-2, pp. 55-63.
(§6) Glioma cell lines, SNB19 and U373, both stably transfected with MGMT (i.e., SNB19M and U373M) or their respective vector controls (i.e., SNB19V and U373V); colorectal carcinoma cell lines, HCT116, HT29, and DLD1; melanoma cell line, SKMEL-28; breast cell line, MCF-7; and normal human fetal lung fibroblast cell line, MRC-5; were used at 60-80% confluence, during the logarithmic phase of growth.
(§7) Following harvesting with trypsin/EDTA, cells in suspension were gently syringed through a 23 gauge needle to obtain a near-single cell suspension. Cells were then seeded into 96-well plates at the desired density in 180 μL culture medium if only one test compound was to be added, or in 160 μL if two test compounds were to be added in combination. Cells were allowed to attach overnight by incubation at 37° C. in 95% air/5% CO2. For the 7 day assay, the cell seeding densities for the different cell lines were as follows: SNB19V, SNB19M: 650 cells/well; U373V, U373M: 650 cells/well; SNB19VR, U373VR: 650 cells/well; HCT116, DLD-1, SKMEL-28, MRC-5, MCF-7: 400 cells/well.
(§8) The two peripheral lanes of each plate were used as blank wells (cell free) and filled with 200 μL of medium in order to minimise medium evaporation from the plate. A separate time zero (T0) plate was set up alongside other plates. Serial dilutions in tissue culture medium of a 100 mM stock of test compound were prepared immediately before each assay to ten times the final concentrations required. 20 μL was added to each well (200 μL total media per well) to achieve final concentrations of 0.5 μM, 1 μM, 5 μM, 10 μM, 50 μM, 100 μM, 500 μM, and 1000 μM. A minimum of four wells received the same test compound concentration. To control wells, including those in the T0 plate, 20 μL of medium was added. […]

U373M = test: MTT assay for 7-day toxicity, U373M glioma cells (stably transfected with MGMT, MGMT+); conditions: 7 day MTT assay, glioma line U373M
Experimental: as §1, §2, §3, §4, §5, §6, §7, §8

U373V = test: MTT assay for 7-day toxicity, U373V glioma cells (vector control, MGMT-); conditions: 7 day MTT assay, glioma line U373V
Experimental: as §1, §2, §3, §4, §5, §6, §7, §8

SNB19V = test: MTT assay for 7-day toxicity, SNB19V glioma cells (vector control, MGMT-); conditions: Glioma cell, 168 h, 7 day MTT assay, glioma line SNB19V
Experimental: as §1, §2, §3, §4, §5, §6, §7, §8

SMILES | GI50 (SNB19M; Glioma cell, 168 h) [µM] | GI50 (U373M; Glioma cell, 168 h) [µM] | GI50 (U373V; Glioma cell, 168 h) [µM] | GI50 (SNB19V) [µM] | GI50 (SNB19M) [µM] | GI50 (U373M) [µM] | GI50 (U373V) [µM]
C#CCn1nnc2c(C(N)=S)ncn2c1=O [TT-001, 4-oxo-3-(prop-2-ynyl)-3,4-dihydroimidazo[5,1-d][1,2,3,5]tetrazine-8-carbothioamide] | 54.7 | 53.4 | 42.3 | 63.2 | – | – | –
Cn1nnc2c(-c3nc(-c4ccsc4)cs3)ncn2c1=O [WW-012, 3-Methyl-8-(4-(thiophen-3-yl)thiazol-2-yl)imidazo[5,1-d][1,2,3,5]tetrazin-4(3H)-one] | < 70 | < 60 | < 75 | < 45 | – | – | –
Cn1nnc2c(-c3nc4ccccc4s3)ncn2c1=O [WW-058, 8-(Benzo[d]thiazol-2-yl)-3-methylimidazo[5,1-d][1,2,3,5]tetrazin-4(3H)-one] | < 70 | < 60 | < 75 | < 45 | – | – | –
C#CCn1nnc2c(-c3nc(-c4ccccc4)c[nH]3)ncn2c1=O [WW-050, 8-(4-Phenyl-1H-imidazol-2-yl)-3-(prop-2-ynyl)imidazo[5,1-d][1,2,3,5]tetrazin-4(3H)-one] | < 70 | < 60 | < 75 | < 45 | – | – | –
C#CCn1nnc2c(-c3nc4ccccc4o3)ncn2c1=O [WW-055, 8-(Benzo[d]oxazol-2-yl)-3-(prop-2-ynyl)imidazo[5,1-d][1,2,3,5]tetrazin-4(3H)-one] | < 70 | < 60 | < 75 | < 45 | – | – | –
C#CCn1nnc2c(-c3nc4ccccc4[nH]3)ncn2c1=O [WW-063, 8-(1H-Benzo[d]imidazol-2-yl)-3-(prop-2-ynyl)imidazo[5,1-d][1,2,3,5]tetrazin-4(3H)-one] | < 70 | < 60 | < 75 | < 45 | – | – | –
Cn1nnc2c(-c3nc(C(N)=O)cs3)ncn2c1=O [WW-007, 2-(3-Methyl-4-oxo-3,4-dihydroimidazo[5,1-d][1,2,3, 5]tetrazin-8-yl)thiazole-4-carboxamide] | < 70 | < 60 | < 75 | < 45 | – | – | –
C#CCn1nnc2c(-c3nnc(-c4ccccc4)o3)ncn2c1=O [WW-042, 8-(5-Phenyl-1,3,4-oxadiazol-2-yl)-3-(prop-2-ynyl)imidazo[5,1-d][1,2,3,5]tetrazin-4(3H)-one] | < 70 | < 60 | < 75 | < 45 | – | – | –
Cn1nnc2c(-c3ncc(-c4ccccc4)o3)ncn2c1=O [WW-038, 3-Methyl-8-(5-phenyloxazol-2-yl)imidazo[5,1-d][1,2,3,5]tetrazin-4(3H)-one] | < 70 | < 60 | < 75 | < 45 | – | – | –
Cn1nnc2c(-c3nc(C(=O)NC4CC4)cs3)ncn2c1=O [WW-008, N-Cyclopropyl-2-(3-methyl-4-oxo-3,4-dihydroimidazo[5,1-d][1,2,3, 5]tetrazin-8-yl)thiazole-4-carboxamide] | < 70 | < 60 | < 75 | < 45 | – | – | –
C#CCn1nnc2c(-c3nc(-c4nccs4)cs3)ncn2c1=O [WW-028, 8-(2,4′-Bithiazol-2′-yl)-3-(prop-2-ynyl)imidazo[5,1-d][1,2,3,5]tetrazin-4(3H)-one] | < 70 | < 60 | < 75 | 54 | 56.5 | 35.1 | 50
Cn1nnc2c(-c3nc(-c4ccc(F)cc4)cs3)ncn2c1=O [WW-001, 8-(4-(4-Fluorophenyl)thiazol-2-yl)-3-methylimidazo[5,1-d][1,2,3,5]tetrazin-4(3H)-one] | < 70 | < 60 | < 75 | < 45 | – | – | –
Cn1nnc2c(-c3nc(-c4ccccc4)co3)ncn2c1=O [WW-037, 3-Methyl-8-(4-phenyloxazol-2-yl)imidazo[5,1-d][1,2,3,5]tetrazin-4(3H)-one] | < 70 | < 60 | < 75 | < 45 | – | – | –
C[S+]([O-])Cn1nnc2c(-c3nc(-c4ccsc4)cs3)ncn2c1=O (centres unmarked) [WW-033, 3-(methylsulfinylmethyl)-8-(4-(thiophen-3-yl)thiazol-2-yl)imidazo[5,1-d][1,2,3,5]tetrazin-4(3H)-one] | < 70 | < 60 | < 75 | < 45 | – | – | –
C#CCn1nnc2c(-c3nc(-c4ccc5c(c4)OCO5)cs3)ncn2c1=O [WW-026] | < 70 | < 60 | < 75 | < 45 | – | – | –
C#CCn1nnc2c(-c3nc(-c4cccc(Cl)c4)cs3)ncn2c1=O [WW-023, 8-(4-(3-Chlorophenyl)thiazol-2-yl)-3-(prop-2-ynyl)imidazo[5,1-d][1,2,3,5]tetrazin-4(3H)-one] | < 70 | < 60 | < 75 | < 45 | – | – | –
C#CCn1nnc2c(-c3nc(-c4ccccc4)cn3C)ncn2c1=O [WW-052, 8-(1-Methyl-4-phenyl-1H-imidazol-2-yl)-3-(prop-2-ynyl)imidazo[5,1-d][1,2,3,5]tetrazin-4(3H)-one] | < 70 | < 60 | < 75 | < 45 | – | – | –
